Test results from patent US7034059B2, “Methods of using norfluoxetine” (Sepracor Inc., priority 2001, dated 2006).
Where two headings read alike, the source gives them in different places.

Columns and labels:
[1] = system: human lung fibroblast cell line WI-38; test: Inhibition of IL-1β-induced PGE2 production, whole cell-based assay; conditions: for PGE2 (pg/ml) / PGE2: IL-1β 100 pg/mL, 24 hours; for IC50: Homo sapiens; for anti-inflammatory activity in vitro, R- versus S-enantiomer: conclusion from Tables 1-4
Method: Compounds were tested for anti-inflammatory activity using a whole cell-based assay, wherein the human lung fibroblast cell line WI-38 was cultured in Eagle's basal media supplemented with 10% fetal calf serum (FCS) in 48-well tissue culture dishes in a humidified 7% CO2 atmosphere at 37° C. When the cells reached confluence, they were fed with fresh media for 24 hours. The media was removed and fresh media, containing either 5% or 10% FCS, was added to the cells. […] Interleukin-1β (Calbiochem) in 0.1% bovine serum albumin in phosphate buffered saline was added in a 1 μL aliquot to give a final concentration of 100 pg/mL. The cells were cultured for 24 hours and the amount of PGE2 secreted into the cell culture media was assayed using a PGE2 enzyme immunoassay kit (Cayman Chemicals, Ann Arbor, Mich.). Inhibition of PGE2 production is indicative of anti-inflammatory activity.
The IC50 values of enantiomerically pure R- and S-norfluoxetine were determined by incubation of the WI-38 cells with varying concentrations of the compounds in question ([…]). The PGE2 produced for each concentration was plotted against the concentration of compound using the 6 safit 4.0 program (Erithacus software) and the IC50 determined by fitting the data to the 4-parameter equation.

[2] = Serum levels of norfluoxetine after fluoxetine treatment (Prozac package insert); type: in vivo; conditions: human, oral, humans, after treatment for 30 days with 40 mg per day of fluoxetine, approximate conversion of ng/ml
Excerpt: It is noteworthy that these values, especially that of R-norfluoxetine, fall within values that may be obtained in serum in humans.

serotonin reuptake = conditions: Physicians' Desk Reference; cited from earlier work
[3] = Table 1, 10% fetal calf serum-containing media, compound 0.5 uM
[4] = Table 1, 10% fetal calf serum-containing media, compound 10 uM
[5] = Table 2, 5% fetal calf serum-containing media, compound 0.5 uM
[6] = Table 2, 5% fetal calf serum-containing media, compound 10 uM
[7] = Table 3, 10% fetal calf serum-containing media, compound 0.5 uM
[8] = Table 3, 10% fetal calf serum-containing media, compound 10 uM
[9] = Table 4, 5% fetal calf serum-containing media, compound 0.5 uM
[10] = Table 4, 5% fetal calf serum-containing media, compound 10 uM

CNCCC(Oc1ccc(C(F)(F)F)cc1)c1ccccc1 (racemic) [rac-fluoxetine, (±)-N-methyl-γ-[4-(trifluoromethyl)-phenoxy]benzenepropanamine]
PGE2 (pg/ml) [1, 3]: low | PGE2 (pg/ml) [1, 4]: low | PGE2 (pg/ml) [1, 5]: low | PGE2 (pg/ml) [1, 6]: low | PGE2 [1, 7]: 545 pg/mL | PGE2 [1, 8]: 156 pg/mL | PGE2 [1, 9]: 22 pg/mL | PGE2 (pg/ml) [1, 10]: low

CC(C(=O)O)c1cccc(C(=O)c2ccccc2)c1 (racemic) [rac-ketoprofen, ketoprofen]
PGE2 (pg/ml) [1, 4]: low | PGE2 [1, 5]: 119 pg/mL | PGE2 (pg/ml) [1, 6]: low

NCCC(Oc1ccc(C(F)(F)F)cc1)c1ccccc1 (racemic) [rac-norfluoxetine, (±)-γ-[4-(trifluoromethyl)-phenoxy]benzenepropanamine]
concentration at 30 days [2]: 230 to 830 nM | PGE2 [1, 3]: 189 pg/mL | PGE2 (pg/ml) [1, 4]: low | PGE2 (pg/ml) [1, 5]: low | PGE2 (pg/ml) [1, 6]: low

C[C@@H](C(=O)O)c1cccc(C(=O)c2ccccc2)c1 [(R)-ketoprofen]
PGE2 (pg/ml) [1, 3]: low | PGE2 (pg/ml) [1, 4]: low | PGE2 (pg/ml) [1, 5]: low | PGE2 (pg/ml) [1, 6]: low

NCC[C@@H](Oc1ccc(C(F)(F)F)cc1)c1ccccc1 [(R)-norfluoxetine, R-norfluoxetine]
potency in inhibiting serotonin uptake (serotonin reuptake): significantly less potent than racemic fluoxetine | IC50 ([1]; WI-38, read-out: IC50 (PGE2 produced)): ~0.79 µM | PGE2 [1, 3]: 714 pg/mL | PGE2 [1, 4]: 159 pg/mL | PGE2 [1, 5]: 255 pg/mL | PGE2 [1, 6]: 31 pg/mL | anti-inflammatory activity in vitro, R- versus S-enantiomer [1]: substantially equipotent

C[C@H](C(=O)O)c1cccc(C(=O)c2ccccc2)c1 [(S)-ketoprofen]
PGE2 (pg/ml) [1, 3]: low | PGE2 (pg/ml) [1, 4]: low | PGE2 [1, 5]: 145 pg/mL | PGE2 (pg/ml) [1, 6]: low

NCC[C@H](Oc1ccc(C(F)(F)F)cc1)c1ccccc1 [(S)-norfluoxetine, S-norfluoxetine]
potency in inhibiting serotonin uptake (serotonin reuptake): potent and selective serotonin uptake inhibition | IC50 ([1]; WI-38 cells, 0.009-20 concentrations, 4-parameter fit, read-out: IC50 (PGE2 produced)): ~1.4 µM | PGE2 [1, 3]: 809 pg/mL | PGE2 [1, 4]: 486 pg/mL | PGE2 [1, 5]: 483 pg/mL | PGE2 [1, 6]: 112 pg/mL | anti-inflammatory activity in vitro, R- versus S-enantiomer [1]: substantially equipotent

Cc1ccc(-c2cc(C(F)(F)F)nn2-c2ccc(S(N)(=O)=O)cc2)cc1 [celebrex]
PGE2 (pg/ml) [1, 3]: low | PGE2 (pg/ml) [1, 4]: low | PGE2 [1, 5]: 16 pg/mL | PGE2 (pg/ml) [1, 6]: low | PGE2 (pg/ml) [1, 7]: low | PGE2 (pg/ml) [1, 8]: low | PGE2 (pg/ml) [1, 9]: low | PGE2 (pg/ml) [1, 10]: low

CNCCC=C1c2ccccc2CCc2ccccc21 [nortriptylene]
PGE2 [1, 7]: 2040 pg/mL | PGE2 [1, 8]: 648 pg/mL | PGE2 [1, 9]: 880 pg/mL | PGE2 [1, 10]: 331 pg/mL
